Test results: patent US10633383B2, “Compounds for the treatment, alleviation or prevention of disorders associated with Tau aggregates” (AC Immune SA, priority 2018, dated 2020)

Key:
[1] = tested on: human neuroblastoma cell line overexpressing the full-length form of human Tau carrying the P301L mutation; test: Reduction of intracellular Tau aggregation (AlphaLISA); assay type: cell-based; conditions: compound at 5 μM, 24 h, aggregated Tau normalized to total Tau, relative to DMSO-treated cells
Protocol: Reduction of Intracellular Tau Aggregation
A human neuroblastoma cell line overexpressing the full-length form of human Tau carrying the P301L mutation was cultured in complete medium [DMEM-F12 4.5 g/L Glutamax (Invitrogen), 15% FBS (Biochrom), 1% Peni/Strep (Invitrogen) supplemented with 2.5 μg/ml of G418 (Sigma-Aldrich) selection antibiotic]. The day before the experiment 5×10^5 cells/well were plated in a 6 well plate in 3 mL of complete medium. The next day, cells were incubated with DMSO or a compound of the present invention at a 5 μM for additional 24 h at 37° C. After incubation, cells were trypsinized, resuspended in 100 μl of homogenization buffer [25 mM Tris-HCl pH 7.4, 150 mM NaCl, 1 mM EDTA, 1 mM EGTA containing phosphatase inhibitors (30 mM NaF, 0.2 mM Na3VO4, 1 nM Okadaic acid, 1 mM PMSF, 5 mM Na4P2O7) and protease inhibitor cocktail (Complete™, Roche)], and then physically lysed with three rapid cycles of freezing and thawing. Samples were then directly tested in the AlphaLISA assay. Phosphorylated, aggregated, and total Tau were quantified by AlphaLisa using the following antibody pairs: • HT7-Acceptor beads+biotin (BT)-Tau13-Donor beads: Total Tau • HT7-Acceptor beads+biotin (BT)-HT7-Donor beads: Aggregated human Tau
The Tau13 (Abcam) was biotinylated using EZ-Link® NHS-PEO Solid Phase biotinylation kit (Thermo Scientific), while the HT7-biotin was from a commercial source (Thermo Scientific).
For each antibody pairs the concentration of acceptor beads and biotinylated antibodies was optimized. All samples were first tested in a dilution series in PBS in order to identify the linear range and optimal dilution for each sample and assay. For the final protocol, the following reagents were added in a 384-well white OptiPlate (PerkinElmer): • 5 μL of test diluted sample • 20 μL of the mixture biotin-mAb acceptor beads at the following final concentrations: • HT7-BT at 1.25 nM in combination with HT7-Acc beads at 10 μg/ml • Tau13-BT at 5 nM in combination with HT7-Acc beads at 2.5 μg/ml
After incubation of this mixture at room temperature for 1 h, 25 μL of Streptavidin Donor beads (Perkin Elmer) at 25 μg/mL were added in the dark. Plates were analyzed after 30 min incubation using the EnSpire Alpha instrument and EnSpire Workstation version 3.00. Data for aggregated Tau were normalized to total Tau and then expressed as percentage of the DMSO-treated cells.

[2] = tested on: rTg4510 mice; test: Histology for misfolded Tau (MC1) in rTg4510 mice; assay type: in vivo, mouse; conditions: 30 mg/kg bi-daily by gavage for 1 month, frontal cortex (FIG. 2)
Source text: (§1) In Vivo Efficacy of the Compounds of the Present Invention In Vivo Study Design for the Testing of Example 12 and Example 45
(§2) Double transgenic rTg4510 mice express the full-length human Tau carrying the P301L mutation (Tau4R0N-P301L) under the control of the tet-inducible CaMKII promoter (Ramsden et al., J. Neurosci., 2005⋅25(46):10637-10647). Single transgenic mice expressing only the tetracycline-controlled transactivator (tTA) were used as genotype controls. The study comprised 4 treatment groups (n=15 female for tTa group and n=11 female mice/group for the treatment) with the following group distribution (see Table 9). […]
(§3) After perfusion, brains were then removed and hemi-sagitally hemisected. […] A systematic random set of sections from seven sagittal levels per animal was used to quantify the Iba1 and CD68 immunoreactivity while 1 section/animal from the medio-lateral level 4 were used to assess Tau misfolding (MC1 monoclonal antibody). […] Sections were imaged using a digital slide scanner (Panoramic 250 Flash, 3D Histech Ltd.) and quantified using the image visualization software Visiopharm.
MC1 staining was analyzed in the frontal cortex in the upper cortical layers. […] This ROI was analyzed in Visiopharm using a predetermined threshold for MC1 staining with a pixel intensity threshold above 30 (8 bits pictures) and excluding all detected objects smaller than 20 μm^2. […]

[3] = tested on: rTg4510 mice; test: Histology for neuroinflammation markers (Iba1, CD68) in rTg4510 mice; assay type: in vivo, mouse
Source text: as §1
as §2, with “9). Compounds or vehicle control were administered once daily or bi-daily by gavage for 1 month starting at the age of 5 months. All mice received 200 ppm doxycycline in chow for 3 weeks plus a loading dose in drinking water for the first two days at 1.5 mg/mL in 4% sucrose.” for “9).”
as §3, with “Visiopharm. […]” for “Visiopharm.”

**Q.** `Fc1ccc2[nH]c3c(c2c1)CN(c1ccc2nc(N4CCOCC4)oc2c1)CC3` [Example 12] was tested. Which inhibition at 5 µM [1] did it give?
**A.** The inhibition at 5 µM was 25 to 50%.

**Q.** What about the “MC1 positive area (misfolded Tau)” value [2] of the same molecule?
**A.** Its value is “decreased the MC1 positive area”.

**Q.** What about the “microgliosis measured as Iba1 immunoreactive area” value ([3]; 30 mg/kg bi-daily by gavage for 1 month (FIG. 3A)) of the same molecule?
**A.** The value was “decreased microgliosis”.

**Q.** What about the “activated phagocytic microglial cells positive for CD68” value ([3]; 30 mg/kg bi-daily by gavage for 1 month (FIG. 3B)) of the same molecule?
**A.** Its value is “decreased highy activated phagocytic migroglial cells”.
